# US11603387B2, “SOCS mimetics for the treatment of diseases” (UNIVERSITY OF FLORIDA RESEARCH FOUNDATION, INC., priority 2014, dated 2023)
# How the values were obtained:
# STAT1 = assay: pSTAT1/STAT1 western blotting under Th17 inducing conditions; format: cell-based, mouse; details: SOCS1+/− CD4+ T cells, SOCS1-KIR peptide (20 μM)
# Procedure: FIGS. 5A-5D. […] (FIGS. 5A and 5B) SOCS1^+/+ or SOCS1^+/− CD4^+CD25^− T cells were stimulated with αCD3 antibodies alone or with αCD3+SOCS1-KIR peptide (20 μM) for 72 h. (FIG. 5A) CD25 expressing cells were assessed by flow cytometry. Results are representative of 4 independent experiments. (FIG. 5B) Proliferation was assessed by CFSE labeling and flow cytometry, cell counts, and ^3[H] thymidine incorporation. n=4. (FIGS. 5C and 5D) SOCS1^+/+ or SOCS1^+/− CD4^+CD25^− T cells were placed under Th17 inducing conditions in the absence or presence of SOCS1-KIR peptide (20 μM) (FIG. 5C) IFNγ expression, relative to β-actin., was assessed by qPCR (left) and ELISA (right) (n=4). (FIG. 5D) pSTAT1 and STAT1 protein expressions were assessed by western blotting. Results are representative of 4 independent experiments. Statistical comparisons were performed using Mann-Whitney U test. (*P<0.05). iTh17=Th17 inducing conditions, WT=SOCS1^+/+, and HT=SOCS1^+/−.
# MACS purified CD4^+CD25^− T cells were stimulated with anti-CD3 Ab (10 μg/ml), anti-CD3 (10 μg/ml) and anti-CD28 (1.5 μg/ml) Abs, or Th17 inducing conditions in the presence or absence of SOCS1-KIR peptide as previously described. […] Equal quantities of protein were loaded and separated in 4%-12% SDS-PAGE gel (Biorad). […]
# JAK2 = JAK2 (Homo sapiens, UniProt O60674); assay: Binding to the activation loop of JAK2
# Sequence of JAK2 (O60674 whole entry, species assumed): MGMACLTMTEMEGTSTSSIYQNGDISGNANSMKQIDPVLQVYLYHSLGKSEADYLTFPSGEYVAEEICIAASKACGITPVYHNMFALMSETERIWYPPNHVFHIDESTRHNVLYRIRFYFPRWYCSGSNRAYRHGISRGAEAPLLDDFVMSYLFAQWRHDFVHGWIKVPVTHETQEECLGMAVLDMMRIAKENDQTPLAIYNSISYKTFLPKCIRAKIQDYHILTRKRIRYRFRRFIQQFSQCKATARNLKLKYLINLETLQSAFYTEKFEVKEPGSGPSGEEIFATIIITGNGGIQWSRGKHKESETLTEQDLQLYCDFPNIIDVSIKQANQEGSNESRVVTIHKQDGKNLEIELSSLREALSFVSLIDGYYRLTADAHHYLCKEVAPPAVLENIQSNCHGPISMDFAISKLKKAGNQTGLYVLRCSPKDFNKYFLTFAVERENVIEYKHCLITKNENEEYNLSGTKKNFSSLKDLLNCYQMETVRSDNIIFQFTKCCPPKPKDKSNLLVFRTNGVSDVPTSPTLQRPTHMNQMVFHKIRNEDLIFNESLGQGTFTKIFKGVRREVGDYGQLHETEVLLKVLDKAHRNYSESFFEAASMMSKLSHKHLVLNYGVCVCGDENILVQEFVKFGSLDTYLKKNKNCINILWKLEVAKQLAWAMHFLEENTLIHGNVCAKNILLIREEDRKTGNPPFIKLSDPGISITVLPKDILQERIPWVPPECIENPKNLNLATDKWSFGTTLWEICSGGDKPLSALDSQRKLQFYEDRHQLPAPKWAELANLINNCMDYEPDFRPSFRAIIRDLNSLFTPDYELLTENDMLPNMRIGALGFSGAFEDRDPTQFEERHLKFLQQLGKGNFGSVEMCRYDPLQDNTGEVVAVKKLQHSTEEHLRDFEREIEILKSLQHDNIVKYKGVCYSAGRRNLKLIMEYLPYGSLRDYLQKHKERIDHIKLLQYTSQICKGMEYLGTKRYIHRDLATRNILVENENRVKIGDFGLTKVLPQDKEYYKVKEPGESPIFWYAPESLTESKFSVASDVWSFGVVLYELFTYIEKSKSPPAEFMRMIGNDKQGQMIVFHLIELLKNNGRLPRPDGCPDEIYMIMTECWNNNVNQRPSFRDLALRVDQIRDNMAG
# SOCS1−/− mice = assay: Lethal perinatal auto-inflammatory disease in SOCS1−/− mice; format: in vivo, mouse; details: peptide combined with CD4 T cells
# From the text: FIGS. 15A-15F. SOCS1-KIR inhibition of lethal inflammatory pathology in SOCS1−/− mice is correlated to enhanced regulatory T cell homeostasis. (FIG. 15A) Kaplan Meier curve showing survival of SOCS1^−/− (black square; n=7) or CD4^+/SOCS1-KIR treatment (purple triangles, n=12). Numbers of mice in each group are indicated in parentheses. Mice were euthanized when moribund with survival comparisons by Mantel-Cox. Statistical significance denoted by asterisks. (FIG. 15B) Photographs of H & E stains depicting heart and liver tissues of 2 week old SOCS1^−/−, SOCS1^−/− mice receiving dual treatments, or littermate control mice. Photographs shown of H & E stained liver and heart of untreated SOCS1^−/− (N=8) and WT (N=7) mice are representative of 100% of samples analyzed. Photographs shown of H & E stained liver and heart of SOCS1^−/− mice receiving combined treatments are representative of 2 out of 5 mice in regard to heart samples and 1 out of 5 mice in regards to liver tissue. (FIG. 15C) Graph showing average daily weights of SOCS1^−/− mice untreated (n=16), CD4^+/SOCS1-KIR treatment (n=12), or WT littermate controls (n=9) over a two week period. (FIG. 15D) Photographs of 2 week old SOCS1^−/− mice, SOCS1^−/− mice receiving dual treatment, and WT littermate controls. (FIG. 15E) Graphs showing IFNg levels within the sera of 2 week old WT (n=7) or SOCS1^−/− mice with (n=8) and without (n=10) CD4^+/SOCS1-KIR treatment, measured by ELISA. (FIG. 15F) Graphs showing absolute numbers of CD4^+Foxp3^+ lymphocytes present in two week old SOCS1^−/− and WT littermate control mice with or without CD4^+/SOCS1-KIR treatment and WT 6-8 week old adult mice. Each dot is representative of an individual mouse with averages denoted by lines. Statistics were performed using unpaired, two-tailed t test comparing treated SOCS1^−/− to untreated SOCS1^−/− 2 wk. Statistical significance is denoted by asterisks. *, p≤0.05; **, p 0≤0.005; ***, p≤0.0005.
# EAE = details: administered in vivo; cited from earlier work
sequence,measurement,setting,value
DTHFRTFRSHSDYRRI (SOCS1-KIR peptide) [SOCS1 mimetic peptide corresponding to the KIR region of SOCS1],STAT1 activation (phosphorylation),STAT1,drastically reduced the enhanced STAT1 activation
same,Binding to and inhibition of JAK2,JAK2,binds to and inhibits the function of JAK2
same,Peripheral Foxp3+CD4+ Tregs,SOCS1−/− mice; 2 week old SOCS1−/− mice,enhanced peripheral homeostasis of Foxp3+CD4+ Tregs
same,Leukocytic infiltration into heart and liver,SOCS1−/− mice; SOCS1−/− mice,prevent/delay leukocytic infiltration into heart and liver
same,Quality of life (size and overall health),SOCS1−/− mice; SOCS1−/− mice,improve the quality of life (size and overall health improvement)
same,Survival,SOCS1−/− mice; SOCS1−/− mice,could extend the life
same,Immune homeostasis and EAE prevention,EAE,could both regulate immune homeostasis and prevent EAE
